The results in this text go back to patent US4218448A, “Antihypertensive polyfluorohydroxyisopropyl bicyclic and tricyclic carbostyrils” (E. I. Du Pont de Nemours and Company, priority 1977, dated 1980).

The subject of the first assay is DOCA hypertensive rats. Briefly: Antihypertensive activity in DOCA hypertensive rats (oral), systolic arterial blood pressure. Particulars: Rattus norvegicus, 1.5 h; oral, groups of 8 DOCA hypertensive rats, usually 90 minutes after treatment; dose producing 30 mm Hg reduction in blood pressure vs controls (Effective Dose 30, ED30); read-out: ED50. It counts as in vivo. As to the method: Rats are made hypertensive by subcutaneous implantation of pellets of desoxycorticosterone acetate (DOCA) and by giving saline solution to drink essentially according to the method described by Sturtevant [Annals of Internal Medicine, 49, 1281 (1958)]. Graded dose levels of each compound are administered orally to groups of 8 hypertensive rats. The compound is prepared in an aqueous polyvinyl alcohol/acacia vehicle and administered at a volume to body weight ratio of 5.0 ml/kg. Sixteen hypertensive rats receiving the aqueous vehicle by the same route serve as controls for each test. At various intervals of time after treatment, usually 90 minutes, the systolic arterial blood pressure of each rat is determined by a modification of the microphone-manometer technique [Friedman, M. and Freed, S. C., Proc. Soc. Exp. Biol, and Med., 70, 670 (1949)]. […]
Regarding `Cc1cc(=O)n2c3c(cc(C(O)(C(F)(F)F)C(F)(F)F)cc13)C(C)CC2` (centres unmarked), the ED (30 mm Hg) worked out at 3.6 mg/kg.

For the compound `Cc1cc(=O)n2c3c(cc(C(O)(C(F)(F)F)C(F)(F)F)cc13)C(C)C2` (centres unmarked), the ED (30 mm Hg) is 0.6 mg/kg.

On to `Cc1cc(=O)n2c3c(cc(C(O)(C(F)(F)F)C(F)(F)F)cc13)CCC2` [Example 1, 2,3-dihydro-9-[2,2,2-trifluoro-1-hydroxy-1-(trifluoromethyl)ethyl]-7-methyl-1H,5H-benzo[ij]quinolizin-5-one], for which the ED (30 mm Hg) turned out to be 1 mg/kg.

Consider `Cc1cc(=O)n2c3c(cc(C(O)(C(F)(F)F)C(F)(F)F)cc13)CCC2C` (centres unmarked) [Example 2, 2,3-dihydro-3,7-dimethyl-9-[2,2,2-trifluoro-1-hydroxy-1-(trifluoromethyl)ethyl]-1H,5H-benzo-[ij]quinolizin-5-one], for which the ED (30 mm Hg) was 0.66 mg/kg.

Regarding `CCc1cc(=O)n2c3c(cc(C(O)(C(F)(F)F)C(F)(F)F)cc13)CCC2` [Example 8, 2,3-dihydro-7-ethyl-9-[2,2,2-trifluoro-1-hydroxy-1-(trifluoromethyl)-ethyl]-1H,5H-benzo[ij]quinolizin-5-one], the ED (30 mm Hg) was 0.27 mg/kg.

With `Cc1c(Br)c(=O)n2c3c(cc(C(O)(C(F)(F)F)C(F)(F)F)cc13)CCC2` [Example 10], the ED (30 mm Hg) turned out to be 9 mg/kg.

Regarding `Cc1cc(=O)n2c3c(cc(C(O)(C(F)(F)F)C(F)(F)F)cc13)CC2` [Example 11, 1,2-dihydro-8-[2,2,2-trifluoro-1-hydroxy-1-(trifluoromethyl)ethyl]-6-methyl-4H-pyrrolo[3,2,1-ij]quinolin-4-one], the ED (30 mm Hg) is 0.13 mg/kg.

Take `Cc1c([N+](=O)[O-])c(=O)n2c3c(cc(C(O)(C(F)(F)F)C(F)(F)F)cc13)CC2` [Example 12, 1,2-dihydro-8-[2,2,2-trifluoro-1-hydroxy-1-(trifluoromethyl)-ethyl]-6-methyl-5-nitro-4H-pyrrolo[3,2,1-ij]quinolin-4-one]: the ED (30 mm Hg) is 1.5 mg/kg.

As for `Cc1c(N)c(=O)n2c3c(cc(C(O)(C(F)(F)F)C(F)(F)F)cc13)CC2` [Example 13, 1,2-dihydro-8-[2,2,2-trifluoro-1-hydroxy-1-(trifluoromethyl)-ethyl]-5-amino-6-methyl-4H-pyrrolo[3,2,1-ij]quinolin-4-one], the ED (30 mm Hg) was found to be 5.4 mg/kg.

On to `Cc1cc(=O)n2c3c(cc(C(O)(C(F)(F)F)C(F)(F)F)cc13)CC2C` (centres unmarked) [Example 14, 1,2-dihydro-2,6-dimethyl-8-[2,2,2-trifluoro-1-hydroxy-1-(trifluoromethyl)-ethyl]-4H-pyrrolo[3,2,1-ij]quinolin-4-one], for which the ED (30 mm Hg) is 0.047 mg/kg.

Consider `CCc1cc(=O)n2c3c(cc(C(O)(C(F)(F)F)C(F)(F)F)cc13)CC2` [Example 22, 1,2-dihydro-6-ethyl-8-[2,2,2-trifluoro-1-hydroxy-1-(trifluoromethyl)ethyl]-4H-pyrrolo[3,2,1-ij]quinolin-4-one], for which the ED (30 mm Hg) amounted to 0.11 mg/kg.

As for `Cc1cc(=O)n2c3c(cc(C(O)(C(F)(F)F)C(F)(F)F)cc13)CCCC2` [Example 23, 5,6,7,8-tetrahydro-10-[2,2,2-trifluoro-1-hydroxy-1-(trifluoromethyl)ethyl]-1-methyl-3H-azepino[3,2,1-ij]quinolin-3-one], the ED (30 mm Hg) came out at 1.3 mg/kg.

In the case of `Cc1cc(=O)[nH]c2ccc(C(O)(C(F)(F)F)C(F)(F)F)cc12` [Example 24, 6-(2,2,2-trifluoro-1-hydroxy-1-(trifluoromethyl)ethyl)-4-methyl-2(1H)-quinolinone], the ED (30 mm Hg) was determined as 4.1 mg/kg.

Regarding `Cc1cc(=O)[nH]c2c(C)cc(C(O)(C(F)(F)F)C(F)(F)F)cc12` [Example 25], the ED (30 mm Hg) is 3.7 mg/kg.

On to `CCc1cc(C(O)(C(F)(F)F)C(F)(F)F)cc2c(C)cc(=O)[nH]c12` [Example 26], for which the ED (30 mm Hg) amounted to 1.3 mg/kg.

For the compound `CCn1c(=O)cc(C)c2cc(C(O)(C(F)(F)F)C(F)(F)F)ccc21` [Example 31, 1-ethyl-6-[2,2,2-trifluoro-1-hydroxy-1-(trifluoromethyl)ethyl]-4-methyl-2(1H)-quinolinone], the ED (30 mm Hg) came out at 1.2 mg/kg.

For the compound `Cc1cc(=O)n(C)c2ccc(C(O)(C(F)(F)F)C(F)(F)F)cc12` [Example 32], the ED (30 mm Hg) was 0.4 mg/kg.

Turning to `CCCCn1c(=O)cc(C)c2cc(C(O)(C(F)(F)F)C(F)(F)F)ccc21` [Example 34], the ED (30 mm Hg) was found to be 5.2 mg/kg.

As to `O=c1ccc2cc(C(O)(C(F)(F)F)C(F)(F)F)cc3c2n1CCC3` [Example 42, 2,3-dihydro-9-[2,2,2-trifluoro-1-hydroxy-1-(trifluoromethyl)ethyl]-1H,5H-benzo[ij]quinolizin-5-one], the ED (30 mm Hg) lay within 3 to 9 mg/kg.

For the compound `CCC(=O)OC(c1cc2c3c(c1)c(C)cc(=O)n3CC2)(C(F)(F)F)C(F)(F)F` [Example 43, 1,2-dihydro-8-[2,2,2-trifluoro-1-hydroxy-1-(tri-fluoromethyl)ethyl]-6-methyl-4H-pyrrolo[3,2,1-ij]quinolin-4-one propanoate], the ED (30 mm Hg) turned out to be 0.22 mg/kg.

For the compound `CC(=O)OC(c1cc2c3c(c1)c(C)cc(=O)n3CC2)(C(F)(F)F)C(F)(F)F` [Example 44, 1,2-dihydro-8-[2,2,2-trifluoro1-hydroxy-1-(trifluoromethyl)ethyl]-6-methyl-4H-pyrrolo[3,2,1-ij]quinolin-4-one acetate], the ED (30 mm Hg) was 0.2 mg/kg.

In the case of `CCCCCCCCCCCC(=O)OC(c1cc2c3c(c1)c(C)cc(=O)n3CC2)(C(F)(F)F)C(F)(F)F` [Example 45, 1,2-dihydro-8-[2,2,2-trifluoro-1-hydroxy-1-(trifluoromethyl)ethyl]-6-methyl-4H-pyrrolo[3,2,1-ij]quinolin-4-one laurate], the ED (30 mm Hg) was 0.12 mg/kg.

Turning to `Cc1cc(=O)n2c3c(cc(C(OC(=O)c4ccccc4)(C(F)(F)F)C(F)(F)F)cc13)CC2` [Example 46], the ED (30 mm Hg) was found to be 0.25 mg/kg.

As to `COC(c1cc2c3c(c1)c(C)cc(=O)n3CC2)(C(F)(F)F)C(F)(F)F` [Example 50, 1,2-dihydro-8-[2,2,2-trifluoro-1-methoxy-1-(trifluoromethyl)-ethyl]-6-methyl-4H-pyrrolo[3,2,1-ij]quinolin-4-one], the ED (30 mm Hg) was determined as 0.35 mg/kg.

Consider `CCOC(c1cc2c3c(c1)c(C)cc(=O)n3CC2)(C(F)(F)F)C(F)(F)F` [Example 51], for which the ED (30 mm Hg) was 0.5 mg/kg.

As for `Cc1cc(=O)n2c3c(cc(C(O)(C(F)F)C(F)(F)F)cc13)CC2` (centres unmarked) [Example 52, 1,2-dihydro-8-[2,2,-difluoro-1-hydroxy-1-(trifluoromethyl)ethyl]-6-methyl-4H-pyrrolo[3,2,1-ij]quinolin-4-one], the ED (30 mm Hg) was 0.075 mg/kg.

Take `Cc1cc(=O)n2c3c(cc(C(O)(C(F)(F)F)C(F)(F)Cl)cc13)CC2` (centres unmarked) [Example 53, 1,2-dihydro-8 [2-chloro-2,2-difluoro-1-hydroxy-1-(trifluoromethyl)ethyl]-6-methyl-4H-pyrrolo[3,-2,1-ij]quinolin-4-one]: the ED (30 mm Hg) was 0.07 mg/kg.

Regarding `Cc1cc(=O)n2c3c(cc(C(O)(C(F)F)C(F)F)cc13)CC2` [Example 54], the ED (30 mm Hg) came out at 1.2 mg/kg.

Still in this assay, the particulars now being: Rattus norvegicus, po, 1.5 h, read-out: ED50.
Take `Cc1c(Cl)c(=O)n2c3c(cc(C(O)(C(F)(F)F)C(F)(F)F)cc13)CCC2` [Example 9, 6-chloro-2,3-dihydro-9-[2,2,2-trifluoro-1-hydroxy-1-(trifluoromethyl)ethyl]-7-methyl-1H,5H-benzo[ij]quinolizin-5-one]: the ED (30 mm Hg) is 1.6 mg/kg.
